Several values for one entry are separate records, joined by “and”; a condition that tells them apart may be missing. Equal entries are not always repeated.
Experiment: PK of compound of Formula (Ia) after single subcutaneous dose of solution formulations in beagle dogs
Format: in vivo
Details: individual dogs
Method: Formulations containing the compound of Formula (Ia), or a pharmaceutically acceptable salt thereof, were prepared as solutions and optionally administered subcutaneously or intramuscularly to rats, rabbits, and/or dogs.
(§1) A solution of about 400 mg/mL of the compound of Formula (Ia) having 17.00 w/w % water, 36.40 w/w % PEG 300, 35.20 w/w % of a sodium salt of a compound of Formula (Ia), 5.00 w/w % ethanol, and 6.40 w/w % poloxamer 188 was prepared. The solution was administered subcutaneously to male beagle dogs at a dose level of about 12 mg/kg and male Wistar Han rats at a dose level of about 50 mg/kg. The pharmacokinetic profiles were determined, and the results for dogs are summarized in Table and Table, while the results for rats are summarized in Table and Table below.
as §1, with “500” for “400”, “14.06” for “17.00”, “30.12” for “36.40”
A solution of about 300 mg/mL of the compound of Formula (Ia) having 23.33 w/w % water, 48.99 w/w % PEG 300, 26.47 w/w % of a sodium salt of a compound of Formula (Ia), and 1.21 w/w % poloxamer 188 was prepared. The solution was administered subcutaneously to male beagle dogs at a dose level of about 6 mg/kg and male Wistar Han rats at a dose level of about 50 mg/kg. The pharmacokinetic profiles were determined, and the results for dogs are summarized in Table and Table, while the results for rats are summarized in Table and Table below.
as §1, with “18.80” for “17.00”, “40.25” for “36.40”, “34.38” for “35.20”, “1.57” for “6.40”
as §1, with “500” for “400”, “16.29” for “17.00”, “34.88” for “36.40”, “41.92” for “35.20”, “1.91” for “6.40”
as §1, with “20.90” for “17.00”, “44.72” for “36.40”, “and 34.38” for “35.20”, “(Ia)” for “(Ia), 5.00 w/w % ethanol, and 6.40 w/w % poloxamer 188”
A solution of about 400 mg/mL of the compound of Formula (Ia) having 19.90 w/w % water, 42.59 w/w % PEG 300, 34.38 w/w % of a sodium salt of a compound of Formula (Ia), and 3.13 w/w % poloxamer 188 was prepared. The solution was administered subcutaneously to male beagle dogs at a dose level of about 12 mg/kg and male Wistar Han rats at a dose level of about 50 mg/kg. […]

- Plasma concentration (0 h, SC 6 mg/kg, solution V, 300 mg/mL): BLQ
- Plasma concentration (0 h, SC 12 mg/kg, solution T, 400 mg/mL): BLQ
- Plasma concentration (0 h, SC 12 mg/kg, solution U, 500 mg/mL): BLQ
- Plasma concentration (1.00 h, SC 6 mg/kg, solution V, 300 mg/mL): BLQ
- Plasma concentration (1.00 h, SC 12 mg/kg, solution T, 400 mg/mL, 12 mg/kg): 10.5 nM and 4.75 nM and 2.96 nM
- Plasma concentration (1.00 h, SC 12 mg/kg, solution U, 500 mg/mL, 12 mg/kg): 4.85 nM and 2.05 nM and 9.86 nM
- Plasma concentration (3.00 h, SC 6 mg/kg, solution V, 300 mg/mL, 6 mg/kg): BLQ and 3.25 nM
- Plasma concentration (3.00 h, SC 12 mg/kg, solution T, 400 mg/mL, 12 mg/kg): 26.1 nM and 18.6 nM and 9.64 nM
- Plasma concentration (3.00 h, SC 12 mg/kg, solution U, 500 mg/mL, 12 mg/kg): 22.9 nM and 7.00 nM and 36.1 nM
- Plasma concentration (8.00 h, SC 6 mg/kg, solution V, 300 mg/mL, 6 mg/kg): 11.6 nM and 11.4 nM
- Plasma concentration (8.00 h, SC 12 mg/kg, solution T, 400 mg/mL, 12 mg/kg): 84.5 nM and 50.3 nM
- Plasma concentration (8.00 h, SC 12 mg/kg, solution U, 500 mg/mL, 12 mg/kg): 68.7 nM and 26.4 nM and 88.4 nM
- Plasma concentration (24.0 h, SC 6 mg/kg, solution V, 300 mg/mL, 6 mg/kg): 25.7 nM and 22.6 nM
- Plasma concentration (24.0 h, SC 12 mg/kg, solution T, 400 mg/mL, 12 mg/kg): 254 nM and 187 nM
- Plasma concentration (24.0 h, SC 12 mg/kg, solution U, 500 mg/mL, 12 mg/kg): 101 nM and 92.7 nM and 207 nM
- Plasma concentration (48.0 h, SC 6 mg/kg, solution V, 300 mg/mL, 6 mg/kg): 27.9 nM and 29.4 nM
- Plasma concentration (48.0 h, SC 12 mg/kg, solution T, 400 mg/mL, 12 mg/kg): 166 nM and 380 nM and 179 nM
- Plasma concentration (48.0 h, SC 12 mg/kg, solution U, 500 mg/mL, 12 mg/kg): 94.1 nM and 94.8 nM
- Plasma concentration (72.0 h, SC 6 mg/kg, solution V, 300 mg/mL, 6 mg/kg): 29.6 nM and 31.5 nM
- Plasma concentration (72.0 h, SC 12 mg/kg, solution T, 400 mg/mL, 12 mg/kg): 105 nM and 452 nM and 112 nM
- Plasma concentration (72.0 h, SC 12 mg/kg, solution U, 500 mg/mL, 12 mg/kg): 62.3 nM and 64.0 nM
- Plasma concentration (96.0 h, SC 6 mg/kg, solution V, 300 mg/mL, 6 mg/kg): 28.8 nM and 29.6 nM
- Plasma concentration (96.0 h, SC 12 mg/kg, solution T, 400 mg/mL, 12 mg/kg): 89.8 nM and 523 nM and 83.8 nM
- Plasma concentration (96.0 h, SC 12 mg/kg, solution U, 500 mg/mL, 12 mg/kg): 45.7 nM and 62.6 nM
- Plasma concentration (168 h, SC 6 mg/kg, solution V, 300 mg/mL, 6 mg/kg): 34.5 nM and 41.4 nM
- Plasma concentration (168 h, SC 12 mg/kg, solution T, 400 mg/mL, 12 mg/kg): 105 nM and 408 nM and 151 nM
- Plasma concentration (168 h, SC 12 mg/kg, solution U, 500 mg/mL, 12 mg/kg): 55.9 nM and 49.6 nM and 187 nM
- Plasma concentration (336 h, SC 12 mg/kg, solution T, 400 mg/mL, 12 mg/kg): 353 nM and 250 nM
- Plasma concentration (336 h, SC 12 mg/kg, solution U, 500 mg/mL, 12 mg/kg): 155 nM and 187 nM
- Plasma concentration (504 h, SC 12 mg/kg, solution T, 400 mg/mL, 12 mg/kg): 229 nM and 199 nM
- Plasma concentration (504 h, SC 12 mg/kg, solution U, 500 mg/mL, 12 mg/kg): 166 nM and 129 nM
- Plasma concentration (672 h, SC 12 mg/kg, solution T, 400 mg/mL, 12 mg/kg): 106 nM and 90.6 nM
- Plasma concentration (672 h, SC 12 mg/kg, solution U, 500 mg/mL, 12 mg/kg): 106 nM and 101 nM and 38.7 nM
- Plasma concentration (840 h, SC 12 mg/kg, solution T, 400 mg/mL, 12 mg/kg): 139 nM and 69.8 nM and 63.7 nM
- Plasma concentration (840 h, SC 12 mg/kg, solution U, 500 mg/mL, 12 mg/kg): 107 nM and 69.7 nM and 41.2 nM
- Plasma concentration (1008 h, SC 12 mg/kg, solution T, 400 mg/mL, 12 mg/kg): 71.1 nM and 74.2 nM
- Plasma concentration (1008 h, SC 12 mg/kg, solution U, 500 mg/mL, 12 mg/kg): 83.5 nM and 61.1 nM and 30.4 nM
- Plasma concentration (1344 h, SC 12 mg/kg, solution T, 400 mg/mL, 12 mg/kg): 35.6 nM and 30.6 nM
- Plasma concentration (1344 h, SC 12 mg/kg, solution U, 500 mg/mL, 12 mg/kg): 38.5 nM and 22.5 nM
- Plasma concentration (1680 h, SC 12 mg/kg, solution T, 400 mg/mL, 12 mg/kg): 34.6 nM and 17.3 nM
- Plasma concentration (1680 h, SC 12 mg/kg, solution U, 500 mg/mL, 12 mg/kg): 25.7 nM and 27.7 nM and 10.5 nM
- Plasma concentration (2016 h, SC 12 mg/kg, solution T, 400 mg/mL, 12 mg/kg): 7.9 nM (2×) and 19.6 nM
- Plasma concentration (2016 h, SC 12 mg/kg, solution U, 500 mg/mL, 12 mg/kg): 10.7 nM and 13.8 nM and 6.40 nM
- Plasma concentration (2352 h, SC 12 mg/kg, solution T, 400 mg/mL, 12 mg/kg): 7.6 nM and 5.7 nM
- Plasma concentration (2352 h, SC 12 mg/kg, solution U, 500 mg/mL, 12 mg/kg): 8.8 nM and 10.2 nM and 3.45 nM
- Plasma concentration (3696 h, SC 6 mg/kg, solution V, 300 mg/mL): BLQ
- Plasma concentration (4032 h, SC 6 mg/kg, solution V, 300 mg/mL): BLQ
Structure (SMILES): CC(C)(C#Cc1ccc(-c2ccc(Cl)c3c(NS(C)(=O)=O)nn(CC(F)(F)F)c23)c([C@H](Cc2cc(F)cc(F)c2)NC(=O)Cn2nc(C(F)(F)F)c3c2C(F)(F)[C@@H]2C[C@H]32)n1)S(C)(=O)=O [compound of Formula (Ia)]

Source: patent publication US11807625B2, “Capsid inhibitors for the prevention of HIV” (Gilead Sciences, Inc., priority 2019, dated 2023)
